Assay results as given in patent publication US8557603B2, “Synthetic peptides, methods and kits for diagnosing autoimmune diseases” (FlySun Development Co. Ltd., priority 2009, dated 2013).

System: IgA autoantibodies of patients with acute HSP
Assay: ELISA detection of IgA anti-β2-GPI-derived peptides antibodies
Type: binding, human
Details: for binding between IgA derived from 7 patients with acute HSP and the synthetic peptide: IgA1-7 at 10 (g/ml), n=7, OD higher than positive control (β2-GPI) regarded as significant, FIG. 8; for plasma level of IgA anti-β2-GPI peptide antibodies in children with acute HSP compared with healthy subjects: plasma 1:50, peptide coated at 10 (g/ml), expressed as OD, p<0.0001
Protocol: Circulating IgA immunoglobulins were isolated from 7 plasma samples positive for both CL and β2GPI by use of a commercial kit, Immobilized Jacalin (PIERCE, USA, USA), which isolates serum-circulating IgA1 by galactose-binding lectin.
Briefly, 96-well high binding plates (Costar, Cambridge, Mass., USA) are coated with human β-2-GPI peptides 1-15 at a concentration of 10 (g/ml in Tris-buffered saline (TBS, 0.05 M Tris-HCl and NaCl, PH 7.5). After incubating overnight at 4° C., plates are blocked with TBS containing 0.3% gelatin. Then, plasma samples (1:50 for IgA), and IgA fraction from patients (indicated concentrations) in TBS/0.1% gelatin were distributed into wells in duplicate and incubated for 1.5 hours at room temperature. A pooled normal human IgA (Jackson ImmunoResearch, West Grove, Pa., USA) will be used as negative controls at the same concentrations. After washing with TBS, bound human […] were detected with HRP-conjugated goat anti-human IgA (BioSource International, Camarillo, Calif., USA), and the peroxidase substrate tetramethylbenzidine (Kirkegaard & Perry Laboratories, Gaithersburg, Md., USA). Results were read at a wavelength of 450 nm against a background of 650 nm with a Thermomax plate reader (Molecular Devices Inc., Sunnyvale, Calif., USA).

| Substance | binding between IgA derived from 7 patients with acute HSP and the synthetic peptide | plasma level of IgA anti-β2-GPI peptide antibodies in children with acute HSP compared with healthy subjects (FIGS. 7, 8 and 9) | binding strength among the synthetic peptides (IgA anti-peptide antibodies, children with acute HSP, FIGS. 7, 8 and 9) |
| --- | --- | --- | --- |
| H2N-FKNGMLHGDKVSFFCKNKEK-COOH (H-FKNGMLHGDKVSFFCKNKEK-OH; listed as Homo sapiens) [P12, synthetic β2-GPI-derived peptide, residues 286-305] | significant binding | significantly higher |  |
| H2N-KATFGCHDGYSLDGPEEIECTKLGNWSAMPSCKASCKVPVKKATVVYQGERVKIQEK-COOH (H-KATFGCHDGYSLDGPEEIECTKLGNWSAMPSCKASCKVPVKKATVVYQGERVKIQEK-OH; cysteine pairing not given here; listed as Homo sapiens) [P11, synthetic β2-GPI-derived peptide, residues 229-285] | significant binding | significantly higher |  |
| H2N-KPGYVSRGGMRKFICPLTGLWPINTLK-COOH (H-KPGYVSRGGMRKFICPLTGLWPINTLK-OH; listed as Homo sapiens) [P3, synthetic β2-GPI-derived peptide, residues 52-78] | significant binding | significantly higher | most significant |
| H2N-KWSPELPVCAPIICPPPSIPTFATLRVYK-COOH (H-KWSPELPVCAPIICPPPSIPTFATLRVYK-OH; cysteine pairing not given here; listed as Homo sapiens) [P7, synthetic β2-GPI-derived peptide, residues 129-157] | significant binding | significantly higher |  |
| H2N-RYTTFEYPNTISFSCNTGFYLNGADSAK-COOH (H-RYTTFEYPNTISFSCNTGFYLNGADSAK-OH; listed as Homo sapiens) [P5, synthetic β2-GPI-derived peptide, residues 96-123] | significant binding | significantly higher |  |
